# According to PubChem BioAssay (NCI):
#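 In this assay, cells in 96-well plates receive the compound at five concentrations for 48 hours. Endpoints are linearly interpolated between the surrounding concentrations. The concentration for 50% growth inhibition is given as GI50. Definition used: TGI = concentration required for complete inhibition of growth.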
# Columns and labels:
# Test in all cases: growth of human tumour cells (NCI), 48 h
# 786-0 renal = system: 786-0 renal
# A498 renal = system: A498 renal
# A549 NSCLC = system: A549 NSCLC
# ACHN renal = system: ACHN renal
# BT-549 breast = system: BT-549 breast
# CAKI-1 renal = system: CAKI-1 renal
# CCRF-CEM leukemia = system: CCRF-CEM leukemia
# COLO 205 colon = system: COLO 205 colon
# DU-145 prostate = system: DU-145 prostate
# EKVX NSCLC = system: EKVX NSCLC
# HCC-2998 colon = system: HCC-2998 colon
# HCT-116 colon = system: HCT-116 colon
# HCT-15 colon = system: HCT-15 colon
# HL-60(TB) leukemia = system: HL-60(TB) leukemia
# HOP-62 NSCLC = system: HOP-62 NSCLC
# HOP-92 NSCLC = system: HOP-92 NSCLC
# HS 578T breast = system: HS 578T breast
# HT29 colon = system: HT29 colon
# IGROV1 ovarian = system: IGROV1 ovarian
# K-562 leukemia = system: K-562 leukemia
# KM12 colon = system: KM12 colon
# LOX IMVI melanoma = system: LOX IMVI melanoma
# M14 melanoma = system: M14 melanoma
# MCF7 breast = system: MCF7 breast
# MDA-MB-231 breast = system: MDA-MB-231 breast
# MDA-MB-435 = system: MDA-MB-435
# MOLT-4 leukemia = system: MOLT-4 leukemia
# NCI-H226 lung = system: NCI-H226 lung
# NCI-H23 lung = system: NCI-H23 lung
# NCI-H460 lung = system: NCI-H460 lung
# NCI-H522 lung = system: NCI-H522 lung
# NCI/ADR-RES ovarian = system: NCI/ADR-RES ovarian
# OVCAR-3 ovarian = system: OVCAR-3 ovarian
# OVCAR-4 ovarian = system: OVCAR-4 ovarian
# OVCAR-5 ovarian = system: OVCAR-5 ovarian
# OVCAR-8 ovarian = system: OVCAR-8 ovarian
# PC-3 prostate = system: PC-3 prostate
# RPMI-8226 leukemia = system: RPMI-8226 leukemia
# RXF 393 renal = system: RXF 393 renal
# SF-268 CNS = system: SF-268 CNS
# SF-295 CNS = system: SF-295 CNS
# SF-539 CNS = system: SF-539 CNS
# SK-MEL-2 melanoma = system: SK-MEL-2 melanoma
# SK-MEL-28 melanoma = system: SK-MEL-28 melanoma
# SK-MEL-5 melanoma = system: SK-MEL-5 melanoma
# SK-OV-3 ovarian = system: SK-OV-3 ovarian
# SN12C renal = system: SN12C renal
# SNB-19 CNS = system: SNB-19 CNS
# SNB-75 CNS = system: SNB-75 CNS
# SR leukemia = system: SR leukemia
# SW-620 colon = system: SW-620 colon
# T-47D breast = system: T-47D breast
# TK-10 renal = system: TK-10 renal
# U251 CNS = system: U251 CNS
# UACC-257 melanoma = system: UACC-257 melanoma
# UACC-62 melanoma = system: UACC-62 melanoma
structure (smiles),measurement,setting,value
O=c1[nH]c(=S)[nH]c(O)c1/C=C1\C=Nc2ccccc21,GI50,786-0 renal,6.47 µM
same,TGI,786-0 renal,22.2 µM
same,GI50,A498 renal,12.3 µM
same,TGI,A498 renal,28.4 µM
same,GI50,A549 NSCLC,37.2 µM
same,TGI,A549 NSCLC,> 100 µM
same,GI50,ACHN renal,11.4 µM
same,TGI,ACHN renal,24.3 µM
same,GI50,BT-549 breast,9.92 µM
same,TGI,BT-549 breast,37.4 µM
same,GI50,CAKI-1 renal,3.61 µM
same,TGI,CAKI-1 renal,20.3 µM
same,GI50,CCRF-CEM leukemia,2.12 µM
same,TGI,CCRF-CEM leukemia,6.47 µM
same,GI50,COLO 205 colon,3.77 µM
same,TGI,COLO 205 colon,18.3 µM
same,GI50,DU-145 prostate,10.3 µM
same,TGI,DU-145 prostate,35.4 µM
same,GI50,EKVX NSCLC,7.14 µM
same,TGI,EKVX NSCLC,32.8 µM
same,GI50,HCC-2998 colon,11.4 µM
same,TGI,HCC-2998 colon,24.8 µM
same,GI50,HCT-116 colon,2.49 µM
same,TGI,HCT-116 colon,10.1 µM
same,GI50,HCT-15 colon,2.78 µM
same,TGI,HCT-15 colon,8.07 µM
same,GI50,HL-60(TB) leukemia,2.65 µM
same,TGI,HL-60(TB) leukemia,8.88 µM
same,GI50,HOP-62 NSCLC,3.66 µM
same,TGI,HOP-62 NSCLC,38.4 µM
same,GI50,HOP-92 NSCLC,3.36 µM
same,TGI,HOP-92 NSCLC,27.3 µM
same,GI50,HS 578T breast,1.95 µM
same,TGI,HS 578T breast,6.19 µM
same,GI50,HT29 colon,3.37 µM
same,TGI,HT29 colon,10.6 µM
same,GI50,IGROV1 ovarian,1.02 µM
same,TGI,IGROV1 ovarian,5.55 µM
same,GI50,K-562 leukemia,8.04 µM
same,TGI,K-562 leukemia,> 100 µM
same,GI50,KM12 colon,1.64 µM
same,TGI,KM12 colon,3.34 µM
same,GI50,LOX IMVI melanoma,2.46 µM
same,TGI,LOX IMVI melanoma,11.1 µM
same,GI50,M14 melanoma,10.6 µM
same,TGI,M14 melanoma,35.1 µM
same,GI50,MCF7 breast,3.95 µM
same,TGI,MCF7 breast,23.9 µM
same,GI50,MDA-MB-231 breast,4.1 µM
same,TGI,MDA-MB-231 breast,33.6 µM
same,GI50,MDA-MB-435,2.01 µM
same,TGI,MDA-MB-435,4.94 µM
same,GI50,MOLT-4 leukemia,2.51 µM
same,TGI,MOLT-4 leukemia,8.02 µM
same,GI50,NCI-H226 lung,12.5 µM
same,TGI,NCI-H226 lung,46.1 µM
same,GI50,NCI-H23 lung,12.4 µM
same,TGI,NCI-H23 lung,44.2 µM
same,GI50,NCI-H460 lung,4.07 µM
same,TGI,NCI-H460 lung,18.5 µM
same,GI50,NCI-H522 lung,16.9 µM
same,TGI,NCI-H522 lung,54.4 µM
same,GI50,NCI/ADR-RES ovarian,6.64 µM
same,TGI,NCI/ADR-RES ovarian,58 µM
same,GI50,OVCAR-3 ovarian,1.44 µM
same,TGI,OVCAR-3 ovarian,3.13 µM
same,GI50,OVCAR-4 ovarian,21.2 µM
same,TGI,OVCAR-4 ovarian,> 100 µM
same,GI50,OVCAR-5 ovarian,25.7 µM
same,TGI,OVCAR-5 ovarian,> 100 µM
same,GI50,OVCAR-8 ovarian,3.47 µM
same,TGI,OVCAR-8 ovarian,> 100 µM
same,GI50,PC-3 prostate,4.88 µM
same,TGI,PC-3 prostate,73.3 µM
same,GI50,RPMI-8226 leukemia,2.34 µM
same,TGI,RPMI-8226 leukemia,6.49 µM
same,GI50,RXF 393 renal,3.71 µM
same,TGI,RXF 393 renal,14.6 µM
same,GI50,SF-268 CNS,2.52 µM
same,TGI,SF-268 CNS,7.91 µM
same,GI50,SF-295 CNS,1.81 µM
same,TGI,SF-295 CNS,6.84 µM
same,GI50,SF-539 CNS,3.11 µM
same,TGI,SF-539 CNS,9.87 µM
same,GI50,SK-MEL-2 melanoma,19.5 µM
same,TGI,SK-MEL-2 melanoma,59 µM
same,GI50,SK-MEL-28 melanoma,6.69 µM
same,TGI,SK-MEL-28 melanoma,48.3 µM
same,GI50,SK-MEL-5 melanoma,11.7 µM
same,TGI,SK-MEL-5 melanoma,27.2 µM
same,GI50,SK-OV-3 ovarian,15.7 µM
same,TGI,SK-OV-3 ovarian,81.5 µM
same,GI50,SN12C renal,7.95 µM
same,TGI,SN12C renal,59.4 µM
same,GI50,SNB-19 CNS,4.53 µM
same,TGI,SNB-19 CNS,59.3 µM
same,GI50,SNB-75 CNS,1.73 µM
same,TGI,SNB-75 CNS,5 µM
same,GI50,SR leukemia,1.72 µM
same,TGI,SR leukemia,4.52 µM
same,GI50,SW-620 colon,1.83 µM
same,TGI,SW-620 colon,3.78 µM
same,GI50,T-47D breast,34.4 µM
same,TGI,T-47D breast,> 100 µM
same,GI50,TK-10 renal,25.1 µM
same,TGI,TK-10 renal,> 100 µM
same,GI50,U251 CNS,2.11 µM
same,TGI,U251 CNS,5.87 µM
same,GI50,UACC-257 melanoma,14.2 µM
same,TGI,UACC-257 melanoma,53.6 µM
same,GI50,UACC-62 melanoma,8.26 µM
same,TGI,UACC-62 melanoma,46.9 µM
